Patent US5776944A, “7-(4-aminomethyl-3-methyloxyiminopyrroplidin-1-yl)-1-cyclopropyl-6-flu oro-4-oxo-1,4-dihydro-1,8-naphthyridine-3-carboxylic acid and the process for the preparation thereof” (LG Chemical Ltd., priority 1994, dated 1998)
Converted amounts (≈) assume the structure as drawn. Like-named read-outs stand apart in the source and are kept apart here.

Tests used:
[1] = tested on: Staphylococcus aureus 6538p; assay: In vitro antibacterial activity (MIC, agar dilution), Biological Example 1; assay type: cell-based; conditions: 18 h, Table 25, read-out: Minimum Inhibitory Concentration
[2] = tested on: Staphylococcus aureus giorgio; assay: as above; assay type: cell-based; conditions: 18 h, Table 25, read-out: Minimum Inhibitory Concentration
Staphylococcus aureus 77 = assay: as above; assay type: cell-based; conditions: 18 h; Staphylococcus aureus 77, Table 25; read-out: Minimum Inhibitory Concentration
[3] = tested on: Staphylococcus aureus 241; assay: as above; assay type: cell-based; conditions: 18 h; Staphylococcus aureus 241, Table 25; read-out: Minimum Inhibitory Concentration
[4] = tested on: Staphylococcus epidermidis 887E; assay: as above; assay type: cell-based; conditions: 18 h, Table 25, read-out: Minimum Inhibitory Concentration
[5] = tested on: Staphylococcus epidermidis 178; assay: as above; assay type: cell-based; conditions: 18 h; Staphylococcus epidermidis 178, Table 25; read-out: Minimum Inhibitory Concentration
[6] = tested on: Streptococcus faecalis 29212; assay: as above; assay type: cell-based; conditions: Enterococcus faecalis, 18 h; Streptococcus faecalis 29212, Table 25; read-out: Minimum Inhibitory Concentration
Bacillus subtilis 6633 = assay: as above; assay type: cell-based; conditions: 18 h; Bacillus subtilis 6633, Table 25; read-out: Minimum Inhibitory Concentration
Micrococcus luteus 9341 = assay: as above; assay type: cell-based; conditions: 18 h; Micrococcus luteus 9341, Table 25; read-out: Minimum Inhibitory Concentration
Escherichia coli 10536 = assay: as above; assay type: cell-based; conditions: read-out: Minimum Inhibitory Concentration
Escherichia coli 3190Y = assay: as above; assay type: cell-based; conditions: 18 h, Table 25, read-out: Minimum Inhibitory Concentration
Escherichia coli 851E = assay: as above; assay type: cell-based; conditions: 18 h, Table 25, read-out: Minimum Inhibitory Concentration
[7] = tested on: Escherichia coli TEM3 3455E; assay: microbe, parasite or virus in culture; assay type: cell-based; conditions: TEM33455E, 18 h, read-out: Minimum Inhibitory Concentration
[8] = tested on: Escherichia coli TEM5 3739E; assay: microbe, parasite or virus in culture; assay type: cell-based; conditions: TEM53739E, 18 h, read-out: Minimum Inhibitory Concentration
[9] = tested on: Escherichia coli TEM9 2639E; assay: microbe, parasite or virus in culture; assay type: cell-based; conditions: TEM92639E, 18 h, read-out: Minimum Inhibitory Concentration
[10] = tested on: Pseudomonas aeruginosa 1912E; assay: In vitro antibacterial activity (MIC, agar dilution), Biological Example 1; assay type: cell-based; conditions: 18 h, read-out: Minimum Inhibitory Concentration
[11] = tested on: Pseudomonas aeruginosa 10145; assay: as above; assay type: cell-based; conditions: 18 h; Pseudomonas aeruginosa 10145, Table 25; read-out: Minimum Inhibitory Concentration
[12] = tested on: Acinetobacter calcoaceticus 15473; assay: as above; assay type: cell-based; conditions: read-out: Minimum Inhibitory Concentration
[13] = tested on: Citrobacter diversus 2046E; assay: as above; assay type: cell-based; conditions: Citrobacter koseri, 18 h, Table 25, read-out: Minimum Inhibitory Concentration
[14] = tested on: Enterobacter cloacae 1194E; assay: microbe, parasite or virus in culture; assay type: cell-based; conditions: 18 h, read-out: Minimum Inhibitory Concentration
Enterobacter cloacae P99 = assay: microbe, parasite or virus in culture; assay type: cell-based; conditions: P99, 18 h, read-out: Minimum Inhibitory Concentration
[15] = tested on: Klebsiella aerogenes 1976E; assay: In vitro antibacterial activity (MIC, agar dilution), Biological Example 1; assay type: cell-based; conditions: 18 h, Table 25, read-out: Minimum Inhibitory Concentration
[16] = tested on: Klebsiella aerogenes 1082E; assay: as above; assay type: cell-based; conditions: 18 h, Table 25, read-out: Minimum Inhibitory Concentration
[17] = tested on: Salmonella typimurium 14028; assay: as above; assay type: cell-based; conditions: 18 h; Salmonella typimurium 14028, Table 25; read-out: Minimum Inhibitory Concentration
[18] = Moisture content according to hydration number; assay type: physicochemical; conditions: actual moisture content, methanesulfonate hydrates
Description: The moisture content of the hydrate varies with the hydration number (n) of the hydrated molecule. Since the molecular weight of 7-(4-amino-methyl-3-methyloxylminopyrrolidin-1-yl)-1-cyclopropyl-6-fluoro- 4-oxo-1,4-dihydro-1,8-naphthyridine-3-carboxylic acid methanesulfonate is 485.5, the moisture content of the hydrate for n equal to 1, 1.5, 2, 2.5, 3, 3.5 or 4 is calculated to be 3.6%, […], 6.9%, 8.5%, 10.0%, 11.5% or 12.9%, respectively. However, the actual moisture content may differ from the calculated moisture content depending on differences in recrystallization conditions, drying conditions, etc.

Pharmacokinetic test = assay type: in vivo; conditions: rat, blood, 20 mg/kg, SD rats (male); for half-life: read-out: T1/2 (biological half life) (converted)
[19] = 18 h, Escherichia coli 10536, Table 25
[20] = Pseudomonas aeruginosa 1912E, Table 25
[21] = 18 h, Acinetobacter calcoaceticus 15473, Table 25

SMILES | MIC [1] | MIC [2] | MIC (Staphylococcus aureus 77) | MIC [3] | MIC [4] | MIC [5] | MIC [6] | MIC (Bacillus subtilis 6633) | MIC (Micrococcus luteus 9341) | MIC (Escherichia coli 3190Y) | MIC (Escherichia coli 851E) | MIC [7] | MIC [8] | MIC [9] | MIC [11] | MIC [13] | MIC [14] | MIC (Enterobacter cloacae P99) | MIC [15] | MIC [16] | other results
C#CCON=C1CN(c2nc3c(cc2F)c(=O)c(C(=O)O)cn3C2CC2)CC1CN (stereo not drawn) [Example 103] | ≤ 8 ng/mL | ≤ 0.008 µg/mL | ≤ 0.008 µg/mL | 4 µg/mL (≈ 9.68 µM) | ≤ 0.008 µg/mL | 4 µg/mL (≈ 9.68 µM) | 0.031 µg/mL (≈ 0.075 µM) | ≤ 8 ng/mL | 0.13 µg/mL (≈ 0.314 µM) | ≤ 8 ng/mL | ≤ 0.008 µg/mL | 0.13 µg/mL (≈ 0.314 µM) | 0.063 µg/mL (≈ 0.152 µM) | 0.031 µg/mL (≈ 0.075 µM) | 0.5 µg/mL (≈ 1.21 µM) | 0.13 µg/mL (≈ 0.314 µM) | 0.016 µg/mL (≈ 0.0387 µM) | ≤ 8 ng/mL | 0.063 µg/mL (≈ 0.152 µM) | 0.031 µg/mL (≈ 0.075 µM) | MIC (Escherichia coli 10536; [19]): ≤ 8 ng/mL; MIC [10, 20]: 0.5 µg/mL (≈ 1.21 µM); MIC [12, 21]: 0.031 µg/mL (≈ 0.075 µM); MIC [17]: 0.031 µg/mL (≈ 0.075 µM)
CON=C1CN(c2nc3c(cc2F)c(=O)c(C(=O)O)cn3C2CC2)CC1CN (stereo not drawn) [4 hydrate, 7-(4-aminomethyl-3-methyloxylminopyrrolidin-1-yl)-1-cyclopropyl-6-fluoro-4-oxo-1,4-dihydro-1,8-naphthyridine-3-carboxylic acid methanesulfonate] | – | – | – | – | – | – | – | – | – | – | – | – | – | – | – | – | – | – | – | – | Moisture Content [18]: 12-13%
CON=C1CN(c2c(F)cc3c(=O)c(C(=O)O)cn(C4CC4)c3c2F)CC1CN (stereo not drawn) [Example 177] | ≤ 8 ng/mL | ≤ 0.008 µg/mL | 0.016 µg/mL (≈ 0.0394 µM) | 0.5 µg/mL (≈ 1.23 µM) | ≤ 0.008 µg/mL | 1 µg/mL (≈ 2.46 µM) | 0.031 µg/mL (≈ 0.0763 µM) | ≤ 8 ng/mL | 0.063 µg/mL (≈ 0.155 µM) | ≤ 8 ng/mL | 0.031 µg/mL (≈ 0.0763 µM) | 0.25 µg/mL (≈ 0.615 µM) | 0.13 µg/mL (≈ 0.32 µM) | 0.063 µg/mL (≈ 0.155 µM) | 0.5 µg/mL (≈ 1.23 µM) | 0.031 µg/mL (≈ 0.0763 µM) | 0.063 µg/mL (≈ 0.155 µM) | 16 ng/mL (≈ 0.0394 µM) | 0.13 µg/mL (≈ 0.32 µM) | 0.063 µg/mL (≈ 0.155 µM) | MIC (Escherichia coli 10536; [19]): ≤ 8 ng/mL; MIC [10, 20]: 0.5 µg/mL (≈ 1.23 µM); MIC [12, 21]: 0.13 µg/mL (≈ 0.32 µM); MIC [17]: 0.063 µg/mL (≈ 0.155 µM); Cmax (Pharmacokinetic test; PO, read-out: Cmax (maximum blood concentration)): 370 ± 110 ng/mL; half-life (Pharmacokinetic test; PO): 236 ± 78.6 min; Tmax (Pharmacokinetic test; PO, read-out: Tmax (time showing maximum blood concentration)): 30.6 ± 19.8 min; bioavailability (Pharmacokinetic test; printed in the IV line, read-out: F (bioavailability)): 47.2%; half-life (Pharmacokinetic test; IV): 115 ± 22.8 min
CON=C1CN(c2cc3c(cc2F)c(=O)c(C(=O)O)cn3C2CC2)CC1CN (stereo not drawn) [Example 179, 7-(4-aminomethyl-3-methoxyiminopyrrolidin-1-yl)-1-cyclopronyl-6-fluoro-4-oxo-1,4-dihydroquinoline-3-carboxylic acid] | ≤ 8 ng/mL | 0.016 µg/mL (≈ 0.0412 µM) | 0.031 µg/mL (≈ 0.0798 µM) | 2 µg/mL (≈ 5.15 µM) | 0.016 µg/mL (≈ 0.0412 µM) | 2 µg/mL (≈ 5.15 µM) | 0.031 µg/mL (≈ 0.0798 µM) | ≤ 8 ng/mL | 0.13 µg/mL (≈ 0.335 µM) | ≤ 8 ng/mL | ≤ 0.008 µg/mL | 0.13 µg/mL (≈ 0.335 µM) | 0.063 µg/mL (≈ 0.162 µM) | 0.031 µg/mL (≈ 0.0798 µM) | 0.25 µg/mL (≈ 0.644 µM) | 0.031 µg/mL (≈ 0.0798 µM) | 0.031 µg/mL (≈ 0.0798 µM) | 8 ng/mL (≈ 0.0206 µM) | 0.13 µg/mL (≈ 0.335 µM) | 0.031 µg/mL (≈ 0.0798 µM) | MIC (Escherichia coli 10536; Escherichia coli, 10536, 18 h): < 8 ng/mL; MIC ([10]; Pseudomonas aeruginosa, 1912E): 0.25 µg/mL (≈ 0.644 µM); MIC ([12]; Acinetobacter calcoaceticus, 15473, 18 h): 0.016 µg/mL (≈ 0.0412 µM); MIC [17]: 0.063 µg/mL (≈ 0.162 µM)
